Assay results taken from patent US9260429B2, “Pyrido[3,4-B]indoles and methods of use” (Medivation Technologies, Inc., priority 2008, dated 2016).
Where two headings read alike, the source gives them in different places.

Key:
[1] = target: T1, human recombinant serotonin (5-Hydroxytryptamine) 5-HT2A receptor (Homo sapiens, UniProt P28223); test: Serotonin 5-HT2A radioligand binding ([3H]Ketanserin); details: for inhibition at 0.003 µM: compound concentration 3 nM; for inhibition at 0.01 µM: compound concentration 10 nM; for inhibition at 0.03 µM: compound concentration 0.03 μM; for inhibition at 0.1 µM: compound concentration 0.1 μM; for inhibition at 0.3 µM: compound concentration 0.3 μM
T1 construct: expressed in transfected cells; host or cells: CHO-K1 cells
T1 sequence (P28223 whole entry): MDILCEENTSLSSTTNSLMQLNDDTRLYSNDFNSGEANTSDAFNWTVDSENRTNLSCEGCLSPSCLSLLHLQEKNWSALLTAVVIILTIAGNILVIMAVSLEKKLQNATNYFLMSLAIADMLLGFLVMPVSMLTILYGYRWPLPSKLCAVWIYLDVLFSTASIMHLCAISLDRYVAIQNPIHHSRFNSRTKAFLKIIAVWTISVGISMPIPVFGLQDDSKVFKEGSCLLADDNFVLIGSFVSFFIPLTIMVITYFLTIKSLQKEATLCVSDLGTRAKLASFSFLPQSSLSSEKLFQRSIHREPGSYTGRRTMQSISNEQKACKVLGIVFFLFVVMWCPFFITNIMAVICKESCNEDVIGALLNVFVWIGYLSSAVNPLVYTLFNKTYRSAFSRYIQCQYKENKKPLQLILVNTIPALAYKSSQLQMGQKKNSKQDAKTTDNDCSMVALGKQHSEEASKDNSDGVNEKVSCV
Outline: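 Membranes from CHO-K1 cells expressing the receptor, in 50 mM Tris-HCl pH 7.4, incubated 60 min at 25° C with 0.5 nM [3H]Ketanserin; 1 μM Mianserin defines non-specific binding. Filtration and counting; values are % inhibition of specific binding at 1 μM or lower, 1% DMSO.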

[2] = target: T2, human recombinant serotonin (5-Hydroxytryptamine) 5-HT6 receptor (Homo sapiens, UniProt P50406); test: Serotonin 5-HT6 radioligand binding ([3H]LSD); details: for inhibition at 0.003 µM: compound concentration 3 nM; for inhibition at 0.01 µM: compound concentration 10 nM; for inhibition at 0.03 µM: compound concentration 0.03 μM; for inhibition at 0.1 µM: compound concentration 0.1 μM; for inhibition at 0.3 µM: compound concentration 0.3 μM
T2 construct: expressed in transfected cells; host or cells: human HeLa cells
T2 sequence (P50406 whole entry): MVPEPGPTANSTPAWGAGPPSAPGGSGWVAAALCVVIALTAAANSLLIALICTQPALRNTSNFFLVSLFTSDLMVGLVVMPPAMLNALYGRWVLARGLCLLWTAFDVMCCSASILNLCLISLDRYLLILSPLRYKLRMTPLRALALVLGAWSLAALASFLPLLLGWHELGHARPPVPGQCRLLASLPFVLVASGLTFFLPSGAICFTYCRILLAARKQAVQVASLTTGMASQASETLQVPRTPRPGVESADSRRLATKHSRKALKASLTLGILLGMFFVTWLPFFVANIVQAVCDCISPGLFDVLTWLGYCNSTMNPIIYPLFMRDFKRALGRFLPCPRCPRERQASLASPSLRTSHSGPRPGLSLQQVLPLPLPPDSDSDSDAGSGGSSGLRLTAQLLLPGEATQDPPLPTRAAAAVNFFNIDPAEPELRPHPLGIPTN
Outline: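 Human 5-HT6 receptor expressed in HeLa cells, in Tris-HCl pH 7.4 with 150 mM NaCl, ascorbic acid and BSA. Compounds at 1 μM or lower (1% DMSO) incubated 120 min at 37° C with 1.5 nM [3H]LSD. Non-specific binding defined with serotonin; filter counting gives % inhibition of specific binding.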

[3] = target: T3, human recombinant histamine H2 receptor (Homo sapiens, UniProt P25021); test: Histamine H2 radioligand binding ([125I]Aminopotentidine)
T3 construct: expressed in transfected cells; host or cells: CHO-K1 cells
T3 sequence (P25021 whole entry): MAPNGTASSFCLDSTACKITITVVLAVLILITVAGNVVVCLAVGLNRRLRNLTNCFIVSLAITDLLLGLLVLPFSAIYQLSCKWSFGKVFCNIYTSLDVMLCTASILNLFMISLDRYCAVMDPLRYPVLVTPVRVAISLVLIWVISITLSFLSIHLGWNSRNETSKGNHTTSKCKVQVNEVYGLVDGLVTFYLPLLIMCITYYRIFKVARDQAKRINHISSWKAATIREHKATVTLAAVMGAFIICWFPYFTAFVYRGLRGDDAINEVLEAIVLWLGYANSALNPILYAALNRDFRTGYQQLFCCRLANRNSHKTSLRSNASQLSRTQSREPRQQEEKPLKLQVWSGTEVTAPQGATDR
Outline: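 Membranes of CHO-K1 cells expressing human H2 receptor incubated with 0.1 nM [125I]aminopotentidine, 120 min, 25 °C, 50 mM phosphate pH 7.4; nonspecific binding defined with 3 μM tiotidine.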

[4] = target: T4, human recombinant histamine H1 receptor (Homo sapiens, UniProt P35367); test: Histamine H1 radioligand binding ([3H]Pyrilamine); details: for inhibition at 3 µM: compound concentration 3 μM; for inhibition at 10 µM: compound concentration 10 μM
T4 construct: expressed in transfected cells; host or cells: CHO cells
T4 sequence (P35367 whole entry): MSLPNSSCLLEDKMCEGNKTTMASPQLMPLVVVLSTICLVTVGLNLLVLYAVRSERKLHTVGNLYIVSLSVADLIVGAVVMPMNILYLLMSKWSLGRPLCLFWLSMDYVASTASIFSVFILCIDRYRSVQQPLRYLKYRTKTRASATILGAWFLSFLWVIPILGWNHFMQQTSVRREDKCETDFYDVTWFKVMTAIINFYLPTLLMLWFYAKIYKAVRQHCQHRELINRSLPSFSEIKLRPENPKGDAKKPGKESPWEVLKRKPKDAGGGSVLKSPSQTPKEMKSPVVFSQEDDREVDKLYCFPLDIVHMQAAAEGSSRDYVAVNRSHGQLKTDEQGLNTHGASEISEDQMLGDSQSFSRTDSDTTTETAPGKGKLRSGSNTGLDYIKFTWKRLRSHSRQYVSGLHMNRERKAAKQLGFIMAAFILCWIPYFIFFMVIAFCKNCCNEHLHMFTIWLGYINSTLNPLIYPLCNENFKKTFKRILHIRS
Outline: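 Binding to the human recombinant histamine H1 receptor, expressed in CHO cells, was measured in a modified Tris-HCl buffer (50 mM Tris-HCl, pH 7.4, 2 mM MgCl2, 100 mM NaCl, 250 mM Sucrose). Compounds were incubated with 1.2 nM [3H]Pyrilamine for 180 minutes at 25° C, with 1 μM pyrilamine defining non-specific binding. After filtration and washing, filter counts gave percent inhibition of specific binding.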

[5] = target: T5, human recombinant serotonin (5-Hydroxytryptamine) 5-HT2C receptor (Homo sapiens, UniProt P28335); test: Serotonin 5-HT2C radioligand binding ([3H]Mesulergine); details: for inhibition at 0.003 µM: compound concentration 3 nM; for inhibition at 0.01 µM: compound concentration 10 nM; for inhibition at 0.03 µM: compound concentration 0.03 μM; for inhibition at 0.1 µM: compound concentration 0.1 μM; for inhibition at 0.3 µM: compound concentration 0.3 μM
T5 construct: expressed in transfected cells; host or cells: CHO-K1 cells
T5 sequence (P28335 33-458): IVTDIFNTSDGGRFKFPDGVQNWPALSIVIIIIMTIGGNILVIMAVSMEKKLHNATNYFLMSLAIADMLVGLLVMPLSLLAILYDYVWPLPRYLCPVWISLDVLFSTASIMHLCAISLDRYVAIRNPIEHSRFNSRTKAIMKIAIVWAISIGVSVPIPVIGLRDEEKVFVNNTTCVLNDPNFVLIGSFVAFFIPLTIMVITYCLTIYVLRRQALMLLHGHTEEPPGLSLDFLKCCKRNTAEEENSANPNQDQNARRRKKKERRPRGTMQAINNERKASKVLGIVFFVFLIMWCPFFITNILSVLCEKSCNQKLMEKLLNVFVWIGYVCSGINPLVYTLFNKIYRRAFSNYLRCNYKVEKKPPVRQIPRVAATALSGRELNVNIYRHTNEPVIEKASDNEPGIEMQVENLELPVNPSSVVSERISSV
Experimental: Compounds of the invention were incubated with 1 nM [^3H]Mesulergine for 60 minutes at 25° C. Non-specific binding was estimated in the presence of 1 μM Mianserin. Receptor proteins were filtered and washed, the filters were then counted to determine [^3H]Mesulergine specifically bound. […] Biochemical assay results are presented as the percent inhibition of specific binding in Table 5.

[6] = target: T6, human recombinant dopamine D2L receptor (Homo sapiens, UniProt P14416); test: Dopamine D2L radioligand binding ([3H]Spiperone); details: for inhibition at 3 µM: compound concentration 3 μM; for inhibition at 10 µM: compound concentration 10 μM
T6 construct: expressed in transfected cells; host or cells: CHO cells
T6 sequence (P14416 whole entry): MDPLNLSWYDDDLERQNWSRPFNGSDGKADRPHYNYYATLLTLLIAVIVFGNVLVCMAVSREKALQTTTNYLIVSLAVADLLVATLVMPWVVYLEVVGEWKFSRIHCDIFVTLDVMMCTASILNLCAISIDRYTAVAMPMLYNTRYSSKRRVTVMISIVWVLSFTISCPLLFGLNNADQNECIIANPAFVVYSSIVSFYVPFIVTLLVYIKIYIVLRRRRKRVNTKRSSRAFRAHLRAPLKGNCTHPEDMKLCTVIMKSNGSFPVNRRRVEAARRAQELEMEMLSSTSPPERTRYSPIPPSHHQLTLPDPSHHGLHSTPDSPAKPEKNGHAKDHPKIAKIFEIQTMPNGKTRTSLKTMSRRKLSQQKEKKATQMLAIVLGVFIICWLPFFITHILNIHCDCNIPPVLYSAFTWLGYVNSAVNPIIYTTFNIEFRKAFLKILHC
Outline: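 CHO-expressed receptor in 50 mM Tris-HCl pH 7.4 with ascorbic acid, 0.001% BSA, 150 mM NaCl; 0.16 nM [3H]spiperone, 120 min at 25 °C; nonspecific binding with haloperidol.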

[7] = 1 h, read-out: Percent Inhibition of ligand binding Serotonin (1 μM ligand concentration) 5-HT2A
[8] = read-out: Percentage inhibition of ligand binding to 5-HT2A receptor
[9] = compound concentration 1 μM, read-out: Percentage inhibition of ligand binding to 5-HT2A receptor
[10] = 2 h, read-out: Percent Inhibition of ligand binding Serotonin (1 μM ligand concentration) 5-HT6
[11] = read-out: Percentage inhibition of ligand binding to 5-HT6 receptor
[12] = compound concentration 1 μM, read-out: Percentage inhibition of ligand binding to 5-HT6 receptor
[13] = 1 μM, inhibition of specific [125I]Aminopotentidine binding, read-out: Binding data (Percentage Inhibition) Histamine Binding (1 μM) H2
[14] = compound concentration 1 μM, read-out: Percentage inhibition of ligand binding to H2 receptor
[15] = 1 μM, read-out: Binding data (Percentage Inhibition) Histamine Binding (1 μM) H1
[16] = compound concentration 1 μM, read-out: Percentage inhibition of ligand binding to H1 receptor
[17] = read-out: Percentage inhibition of ligand binding to H1 receptor
[18] = 1 h, read-out: Percent Inhibition of ligand binding Serotonin (1 μM ligand concentration) 5-HT2C
[19] = read-out: Percentage inhibition of ligand binding to 5-HT2C receptor
[20] = compound concentration 1 μM, read-out: Percentage inhibition of ligand binding to 5-HT2C receptor
[21] = 2 h, 1 μM ligand conc., read-out: Percent Inhibition of ligand binding Dopamine (1 μM ligand conc.) D2L
[22] = compound concentration 1 μM, read-out: Percentage inhibition of ligand binding to D2L receptor
[23] = read-out: Percentage inhibition of ligand binding to D2L receptor

C/C(=C\n1c2c(c3cc(Cl)ccc31)CCN(C)C2)c1ccc(F)cc1 [Compound 90, (E)-6-chloro-9-(2-(4-fluorophenyl)prop-1-enyl)-2-methyl-2,3,4,9-tetrahydro-1H-pyrido[3,4-b]indole]
inhibition at 1 µM [1, 7]: 97%
inhibition at 0.003 µM [1, 8]: 1%
inhibition at 0.01 µM [1, 8]: 9%
inhibition at 0.03 µM [1, 8]: 31%
inhibition at 0.1 µM [1, 8]: 64%
inhibition at 0.3 µM [1, 8]: 87%
inhibition at 1 µM [1, 9]: 97%
inhibition at 1 µM [2, 10]: 98%
inhibition at 0.003 µM [2, 11]: 16%
inhibition at 0.01 µM [2, 11]: 32%
inhibition at 0.03 µM [2, 11]: 58%
inhibition at 0.1 µM [2, 11]: 81%
inhibition at 0.3 µM [2, 11]: 94%
inhibition at 1 µM [2, 12]: 98%
inhibition at 1 µM [3, 13]: 64%
inhibition at 1 µM [3, 14]: 64%
inhibition at 1 µM [4, 15]: 29%
inhibition at 1 µM [4, 16]: 48%
inhibition at 3 µM [4, 17]: 76%
inhibition at 10 µM [4, 17]: 94%
inhibition at 1 µM [5, 18]: 99%
inhibition at 0.003 µM [5, 19]: 22%
inhibition at 0.01 µM [5, 19]: 37%
inhibition at 0.03 µM [5, 19]: 65%
inhibition at 0.1 µM [5, 19]: 82%
inhibition at 0.3 µM [5, 19]: 93%
inhibition at 1 µM [5, 20]: 99%
inhibition at 1 µM [6, 21]: 36%
inhibition at 1 µM [6, 22]: 39%
inhibition at 3 µM [6, 23]: 70%
inhibition at 10 µM [6, 23]: 91%

C/C(=C\n1c2c(c3cc(C)ccc31)CCN(C)C2)c1ccc(F)cc1 [Compound 91, (E)-9-(2-(4-fluorophenyl)prop-1-enyl)-2,6-dimethyl-2,3,4,9-tetrahydro-1H-pyrido[3,4-b]indole]
inhibition at 1 µM [1, 7]: 97%
inhibition at 0.003 µM [1, 8]: 2%
inhibition at 0.01 µM [1, 8]: 21%
inhibition at 0.03 µM [1, 8]: 54%
inhibition at 0.1 µM [1, 8]: 79%
inhibition at 0.3 µM [1, 8]: 92%
inhibition at 1 µM [1, 9]: 97%
inhibition at 1 µM [2, 10]: 100%
inhibition at 0.003 µM [2, 11]: 15%
inhibition at 0.01 µM [2, 11]: 42%
inhibition at 0.03 µM [2, 11]: 68%
inhibition at 0.1 µM [2, 11]: 84%
inhibition at 0.3 µM [2, 11]: 96%
inhibition at 1 µM [2, 12]: 100%
inhibition at 1 µM [3, 13]: 68%
inhibition at 1 µM [3, 14]: 68%
inhibition at 1 µM [4, 15]: 28%
inhibition at 1 µM [4, 16]: 42%
inhibition at 3 µM [4, 17]: 75%
inhibition at 10 µM [4, 17]: 95%
inhibition at 1 µM [5, 18]: 104%
inhibition at 0.003 µM [5, 19]: 22%
inhibition at 0.01 µM [5, 19]: 58%
inhibition at 0.03 µM [5, 19]: 77%
inhibition at 0.1 µM [5, 19]: 87%
inhibition at 0.3 µM [5, 19]: 93%
inhibition at 1 µM [5, 20]: 104%
inhibition at 1 µM [6, 21]: 27%
inhibition at 1 µM [6, 22]: 44%
inhibition at 3 µM [6, 23]: 64%
inhibition at 10 µM [6, 23]: 91%

Cc1ccc2c(c1)c1c(n2/C=C/c2ccccc2)CN(C)CC1 [Compound 92]
inhibition at 1 µM [1, 7]: 97%
inhibition at 0.01 µM [1, 8]: 13%
inhibition at 0.03 µM [1, 8]: 37%
inhibition at 0.1 µM [1, 8]: 65%
inhibition at 0.3 µM [1, 8]: 83%
inhibition at 1 µM [1, 9]: 97%
inhibition at 1 µM [2, 10]: 96%
inhibition at 0.01 µM [2, 11]: 14%
inhibition at 0.03 µM [2, 11]: 28%
inhibition at 0.1 µM [2, 11]: 60%
inhibition at 0.3 µM [2, 11]: 81%
inhibition at 1 µM [2, 12]: 96%
inhibition at 1 µM [3, 13]: 50%
inhibition at 1 µM [3, 14]: 50%
inhibition at 1 µM [4, 15]: 99%
inhibition at 0.03 µM ([4]; compound concentration 0.03 μM, read-out: Percentage inhibition of ligand binding to H1 receptor): 67%
inhibition at 0.1 µM ([4]; compound concentration 0.1 μM, read-out: Percentage inhibition of ligand binding to H1 receptor): 91%
inhibition at 0.3 µM ([4]; compound concentration 0.3 μM, read-out: Percentage inhibition of ligand binding to H1 receptor): 96%
inhibition at 1 µM [4, 16]: 99%
inhibition at 1 µM [5, 18]: 96%
inhibition at 1 µM [5, 20]: 96%
inhibition at 1 µM [6, 21]: 47%
inhibition at 1 µM [6, 22]: 47%
inhibition at 3 µM [6, 23]: 72%

C/C(=C\n1c2c(c3cc(C)ccc31)CCN(C)C2)c1ccc(Cl)cc1 [Compound 97, 9-(2-(4-chlorophenyl)prop-1-enyl)-2,6-dimethyl-2,3,4,9-tetrahydro-1H-pyrido[3,4-b]indole]
inhibition at 1 µM [1, 7]: 97%
inhibition at 1 µM [2, 10]: 72%
inhibition at 1 µM [3, 13]: 89%
inhibition at 1 µM [4, 15]: 20%
inhibition at 1 µM [5, 18]: 99%
inhibition at 1 µM [6, 21]: 15%
